Data taken from US10344019B2 (priority 2010, dated 2019).
Where two headings read alike, the source gives them in different places.

Columns and labels:
Assay type in all cases: cell-based
[1] = tested on: HCV 1a RLuc cells (dicistronic genotype 1a H77 replicon, RLuc reporter); assay: microbe, parasite or virus in culture; conditions: Hepatitis C virus, read-out: 1a
How it was run: (§1)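 Replicons used: genotype 1b Con1, 1a H77, 2a JFH-1, and a 2a JFH-1 chimera with J6-strain NS5A (M31 present), all dicistronic.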

[2] = tested on: HCV 1b RLuc cells (dicistronic genotype 1b Con1 replicon, RLuc reporter); assay: microbe, parasite or virus in culture; conditions: Hepatitis C virus, read-out: 1b (nM)
How it was run: as §1

[3] = tested on: HCV 2a JFH-1 Rluc cells (dicistronic genotype 2a JFH-1 replicon, RLuc reporter); assay: microbe, parasite or virus in culture; conditions: Hepatitis C virus, read-out: 2a JFH
How it was run: as §1

[4] = tested on: HCV 2b Rluc cells (NS5A chimeric genotype 2a JFH-1 replicon with genotype 2b MD2b-1 NS5A gene, M31 present); assay: microbe, parasite or virus in culture; conditions: Hepatitis C virus, read-out: 2b
How it was run: (§2)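 Replicon cells stably carrying the listed RLuc-encoding dicistronic replicons were seeded and treated with DMSO serial dilutions of compound (10 mM stocks) diluted into culture medium. After 72 h, cells were lysed and Renilla luciferase activity measured. EC50 was derived by non-linear regression.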

[5] = tested on: HCV 3a RLuc cells (NS5A chimeric genotype 1b Con1 replicon with consensus genotype 3a NS5A gene); assay: microbe, parasite or virus in culture; conditions: Hepatitis C virus
How it was run: as §2

[6] = tested on: HCV 4a Rluc cells (NS5A chimeric genotype 1b Con1 replicon with genotype 4a NS5A gene); assay: microbe, parasite or virus in culture; conditions: Hepatitis C virus, read-out: 4a
How it was run: as §2

[7] = tested on: HCV 2a Rluc cells (NS5A chimeric genotype 2a JFH-1 replicon with genotype 2a J6 strain NS5A gene, M31 present); assay: HCV replicon reporter assay, genotype 2a J6 (M31 present); conditions: Hepatitis C virus, read-out: 2a J6
How it was run: as §1

[8] = genotype 2a JFH-1 RLuc replicon
[9] = read-out: 3a, genotype 3a NS5A chimeric replicon
[10] = read-out: 3a, genotype 3a replicon

Row | SMILES | EC50 ([1]; genotype 1a H77 RLuc replicon) | EC50 [2] | EC50 [3, 8] | EC50 [4] | EC50 [5, 9] | EC50 [6] | EC50 [7] | EC50 ([1]; genotype 1a replicon) | EC50 ([3]; genotype 2a JFH-1 replicon) | EC50 [5, 10] | EC50 ([1]; genotype 1a H77 replicon, RLuc reporter) | EC50 ([3]; genotype 2a JFH-1 replicon, RLuc reporter) | EC50 ([5]; read-out: 3a, genotype 3a NS5A chimeric 1b Con1 replicon) | EC50 ([1]; 72 h, Table 1, genotype 1a H77 replicon, 72 hours) | EC50 ([2]; 72 h) | EC50 ([3]; 72 h, Table 1, genotype 2a JFH-1 replicon, 72 hours) | EC50 ([5]; read-out: 3a, Table 1, genotype 3a NS5A chimeric replicon)
1 | COC[C@H]1C[C@@H](c2ncc(-c3cc4c5c(c3)OCc3cc(-c6cnc([C@@H]7CC[C@H](C)N7C(=O)[C@@H](NC(=O)OC)C(C)C)[nH]6)cc(c3-5)OC4)[nH]2)N(C(=O)[C@@H](NC(=O)OC)C(C)C)C1 [Example 595] | 0.001 to 0.999 nM | 0.02 nM | 0.001 to 0.999 nM | 1 to 44 nM | 0.001 to 0.99 nM | 0.001 to 0.99 nM | > 44 nM | – | – | – | – | – | – | – | – | – | –
2 | CCS[C@H]1C[C@@H](c2nc3ccc4cc(-c5ccc6c(ccc7nc([C@@H]8C[C@H](COC)CN8C(=O)[C@H](NC(=O)OC)c8ccccc8)[nH]c76)c5)ccc4c3[nH]2)N(C(=O)[C@@H](NC(=O)OC)C(C)C)C1 [Example 583] | 0.001 to 0.999 nM | 0.018 nM | 0.001 to 0.999 nM | 0.001 to 0.999 nM | 0.001 to 0.99 nM | 0.001 to 0.99 nM | 0.001 to 0.999 nM | – | – | – | – | – | – | – | – | – | –
3 | COC(=O)N[C@H](C(=O)N1CCC[C@H]1c1nc2ccc3cc(-c4ccc5c(ccc6nc([C@@H]7CC8(CN7C(=O)[C@@H](NC(=O)OC)C(C)C)OCCO8)[nH]c65)c4)ccc3c2[nH]1)C(C)C [Example 363] | – | 0.025 nM | – | > 44 nM | – | 0.001 to 0.99 nM | 1 to 44 nM | 0.001 to 0.999 nM | 0.001 to 0.999 nM | 1 to 4.99 nM | – | – | – | – | – | – | –
4 | COC(=O)N[C@H](C(=O)N1CCC[C@H]1c1nc2ccc3cc(-c4ccc5cc(-c6cnc([C@@H]7CCCN7C(=O)[C@H](NC(=O)OC)c7ccccc7)[nH]6)ccc5c4)ccc3c2[nH]1)C(C)C [Example 206] | – | 0.005 nM | – | > 44 nM | – | 0.001 to 0.99 nM | 1 to 44 nM | – | – | – | 0.001 to 0.999 nM | 0.001 to 0.999 nM | 0.001 to 0.99 nM | – | – | – | –
5 | COC(=O)N[C@H](C(=O)N1CC2(C[C@H]1c1nc3ccc4cc(-c5ccc6c(ccc7nc([C@@H]8C[C@H]9C[C@H]9N8C(=O)[C@H](NC(=O)OC)c8ccccc8)[nH]c76)c5)ccc4c3[nH]1)OCCO2)C(C)C [Example 356] | – | 0.022 nM | – | 0.001 to 0.999 nM | – | 0.001 to 0.99 nM | 0.001 to 0.999 nM | 0.001 to 0.999 nM | 0.001 to 0.999 nM | 0.001 to 0.99 nM | – | – | – | – | – | – | –
6 | COC(=O)N[C@H](C(=O)N1CCC[C@H]1c1ncc(-c2ccc3c4c(ccc3c2)-c2ccc(-c3cnc([C@@H]5CCCN5C(=O)[C@H](NC(=O)OC)c5ccccc5)[nH]3)cc2CO4)[nH]1)[C@@H](C)OC [Example 16] | – | – | – | 1 to 44 nM | – | 0.001 to 0.99 nM | 1 to 44 nM | – | – | – | – | – | – | 0.001 to 0.999 nM | 0.011 nM | 0.001 to 0.999 nM | 0.001 to 0.99 nM
7 | COC(=O)N[C@H](C(=O)N1CCC[C@H]1c1ncc(-c2ccc3c(c2)COc2c-3ccc3c2ccc2nc([C@@H]4CCCN4C(=O)[C@H](NC(=O)OC)c4ccccc4)[nH]c23)[nH]1)C(C)C [Example 413] | – | 0.017 nM | – | 1 to 44 nM | – | 0.001 to 0.99 nM | 1 to 44 nM | 0.001 to 0.999 nM | 0.001 to 0.999 nM | 0.001 to 0.99 nM | – | – | – | – | – | – | –
8 | COC(=O)N[C@H](C(=O)N1CCC[C@H]1c1nc2ccc3c4c(ccc3c2[nH]1)-c1ccc(-c2cnc([C@@H]3CCCN3C(=O)[C@H](NC(=O)OC)c3ccccc3)[nH]2)cc1CO4)C(C)C [Example 412] | – | 0.018 nM | – | 0.001 to 0.999 nM | – | 0.001 to 0.99 nM | 1 to 44 nM | 0.001 to 0.999 nM | 0.001 to 0.999 nM | 0.001 to 0.99 nM | – | – | – | – | – | – | –
9 | O=C(N[C@@H](C(=O)N1CCC[C@H]1c1ncc(-c2cc3c4c(c2)OCc2cc(-c5cnc([C@@H]6CCCN6C(=O)[C@H](NC(=O)c6ccccn6)c6ccccc6)[nH]5)cc(c2-4)OC3)[nH]1)c1ccccc1)c1ccccn1 [Example 482] | – | 0.034 nM | – | 0.001 to 0.999 nM | – | 0.001 to 0.99 nM | 0.001 to 0.999 nM | 0.001 to 0.999 nM | 0.001 to 0.999 nM | 0.001 to 0.99 nM | – | – | – | – | – | – | –
10 | COC[C@H]1C[C@@H](c2nc3ccc4cc(-c5ccc6c(ccc7nc([C@@H]8[C@@H]9CC[C@@H](C9)N8C(=O)[C@H](NC(=O)OC)c8ccccc8)[nH]c76)c5)ccc4c3[nH]2)N(C(=O)[C@@H](NC(=O)OC)C(C)C)C1 [Example 452] | – | 0.047 nM | – | 1 to 44 nM | – | 0.001 to 0.99 nM | 0.001 to 0.999 nM | 0.001 to 0.999 nM | 0.001 to 0.999 nM | 0.001 to 0.99 nM | – | – | – | – | – | – | –
11 | CC(C)(C)C(=O)N[C@@H](C(=O)N1CCC[C@H]1c1ncc(-c2cc3c4c(c2)OCc2cc(-c5cnc([C@@H]6CCCN6C(=O)[C@H](NC(=O)C(C)(C)C)c6ccccc6)[nH]5)cc(c2-4)OC3)[nH]1)c1ccccc1 [Example 466] | – | 0.042 nM | – | 1 to 44 nM | – | 0.001 to 0.99 nM | 1 to 44 nM | 0.001 to 0.999 nM | 0.001 to 0.999 nM | 0.001 to 0.99 nM | – | – | – | – | – | – | –
12 | CC#Cc1cc(-c2cnc([C@@H]3CCCN3C(=O)[C@@H](NC(=O)OC)C(C)C)[nH]2)ccc1-c1ccc2c(ccc3nc([C@@H]4C[C@H](COC)CN4C(=O)[C@H](NC(=O)OC)c4ccccc4)[nH]c32)c1 [Example 549] | 0.001 to 0.999 nM | 0.007 nM | 0.001 to 0.999 nM | 0.001 to 0.999 nM | 0.001 to 0.99 nM | 0.001 to 0.99 nM | 0.001 to 0.999 nM | – | – | – | – | – | – | – | – | – | –
13 | COC(=O)N[C@H](C(=O)N1CCC[C@H]1c1nc2ccc3cc(-c4ccc5c(ccc6nc([C@@H]7[C@@H]8CC[C@@H](C8)N7C(=O)[C@H](NC(=O)OC)c7ccccc7)[nH]c65)c4)ccc3c2[nH]1)C(C)C [Example 429] | – | 0.033 nM | – | 1 to 44 nM | – | 0.001 to 0.99 nM | 1 to 44 nM | 0.001 to 0.999 nM | 0.001 to 0.999 nM | 0.001 to 0.99 nM | – | – | – | – | – | – | –
14 | COC[C@H]1C[C@@H](c2ncc(-c3ccc(-c4ccc5c(c4)OCc4nc([C@@H]6CCCN6C(=O)[C@@H](NC(=O)OC)C(C)C)[nH]c4-5)cc3)[nH]2)N(C(=O)[C@@H](NC(=O)OC)C(C)C)C1 [Example 458] | – | 0.085 nM | – | > 44 nM | – | 0.001 to 0.99 nM | > 44 nM | 0.001 to 0.999 nM | 0.001 to 0.999 nM | 1 to 4.99 nM | – | – | – | – | – | – | –
15 | COC(=O)N[C@H](C(=O)N1CCC[C@H]1c1nc2ccc3c(F)c(-c4ccc5c(ccc6nc([C@@H]7CCCN7C(=O)[C@@H](NC(=O)OC)C(C)C)[nH]c65)c4F)ccc3c2[nH]1)C(C)C [Example 457] | – | 0.009 nM | – | > 44 nM | – | 0.001 to 0.99 nM | > 44 nM | 0.001 to 0.999 nM | 0.001 to 0.999 nM | 0.001 to 0.99 nM | – | – | – | – | – | – | –
16 | CC(C)OC(=O)N[C@@H](C(=O)N1CCC[C@H]1c1ncc(-c2cc3c4c(c2)OCc2cc(-c5cnc([C@@H]6CCCN6C(=O)[C@H](NC(=O)OC(C)C)c6ccccc6)[nH]5)cc(c2-4)OC3)[nH]1)c1ccccc1 [Example 488] | 0.001 to 0.999 nM | 0.03 nM | 0.001 to 0.999 nM | 0.001 to 0.999 nM | 0.001 to 0.99 nM | 0.001 to 0.99 nM | 1 to 44 nM | – | – | – | – | – | – | – | – | – | –
